Where two headings read alike, the source gives them in different places.
What was measured:
Streptococcus mutans = assay: Biofilm growth assay in BHI, crystal violet; type: cell-based; conditions: S mutans
Description: (§1) Late exponential growth phase liquid cultures were prepared by transferring the respective bacterium from blood agar plates to BHI and overnight incubation at 37° C. in an anaerobic atmosphere for A. viscosus, V. parvula, F. nucleatum, P. gingivalis, P. intermedia, T. forsythia, A. naeslundii, and C. sputigena, and in a 5% CO2 environment for S. salivarius, S. sanguinis, S. mitis, A. actinomycetemcomitans, S. mutans, and S. gordonii. […] Additionally, for each bacterium tested, a background control, to correct for background staining, was added. This background control contained the bacterium tested and 0.03 weight % chlorhexidine, as an antiseptic. Plates were incubated as previously described. After 48 hrs the supernatant was removed from the wells of the plates. The wells were washed twice with 1×100 μL/PBS (phosphate buffered saline), fixed for 20 minutes with 96% vol. ethanol (96% vol. solution in water) and the biofilm retained at the bottom of the wells was stained with 1 weight % crystal violet (1 weight % solution in water). […] Quantification of the stained biofilm was performed by measuring the absorbance at 630 nm using a Multiskan Ascent microplate reader (Thermo Scientific).

Streptococcus salivarius = assay: Biofilm growth assay in BHI, crystal violet; type: cell-based; conditions: S salivarius
Description: as §1

Streptococcus sanguinis [1] = assay: Biofilm growth assay in BHI, crystal violet; type: cell-based; conditions: S sanguinis
Description: as §1

Tannerella forsythia = assay: Biofilm growth assay in BHI, crystal violet; type: cell-based; conditions: T forsythia
Description: as §1

Veillonella parvula = assay: Biofilm growth assay in BHI, crystal violet; type: cell-based; conditions: V parvula
Description: as §1

[2] = test system: beneficial oral bacteria and pathogenic oral bacteria; assay: Biofilm growth, prebiotic effect over the whole panel; type: cell-based; conditions: 25 μmol/ml; 48 hours; threshold value of 1.6
Description: as §1

[3] = test system: Aggregatibacter actinomycetemcomitans; conditions: A actinomycetemcomitans, BHI
Description: (§2) Late exponential growth phase liquid cultures were prepared by transferring the respective bacterium from blood agar plates to BHI and overnight incubation at 37° C. in an anaerobic atmosphere for A. viscosus, V. parvula, F. nucleatum, P. gingivalis, P. intermedia, T forsythia, A. naeslundii, and C. sputigena, and in a 5% CO2 environment for S. salivarius, S. sanguinis, S. mitis, A. actinomycetemcomitans, S. mutans, S. sobrinus and S. gordonii. Overnight cultures were transferred to BHI and adjusted to a concentration of 1×10^7 CFU/ml (colony forming units per ml) by measuring the optical density at 600 nm (OD600) (BioRad SmartSpec 3000). For each strain, 200 μl of the bacterial suspension was added to a 96-well plate containing 20 μl of the respective carboxylic acids. Final concentrations of the carboxylic acids were set to 5, 10, 20 and 25 μmol/ml. […] Plates were incubated as previously described.
(§3) For each combination of bacterium/carboxylic acid, and for each of their respective controls (i.e. the particular bacterium in the nutritionally rich medium with no carboxylic acid), the optical density was measured at 630 nm (OD630) at 0 h, 24 h and 48 h (Thermo Scientific Multiskan Ascent). Additionally, the OD630 for combinations of bacterium/carboxylic acid grown in a 5% CO2 environment were also measured every hour between 0 h and 9 h.
(§4) The experiment was carried out on three different days (thus providing 3 biological replicas) and on each day the experiment was carried out in quadruple (thus providing 4 technical replicas) for each combination of bacterium with carboxylic acid and for each control. For each day and for each combination, the average (mean) of the values obtained (as detailed above) for the four technical replicas was calculated to provide a single value for each combination on each day.

Streptococcus sobrinus = conditions: S sobrinus, BHI
Description: as §2, §3, §4

Capnocytophaga sputigena = conditions: C sputigena, BHI
Description: as §2, §3, §4

Streptococcus sanguinis [4] = conditions: S sanguinis, BHI
Description: as §2, §3, §4

[5] = test system: beneficial oral bacteria and pathogenic oral bacteria; conditions: over 48 hours, threshold value of 1.25
Description: The beneficial oral bacteria tested were Streptococcus mitis, Streptococcus salivarius, Streptococcus sanguinis, Actinomyces viscosus, Streptococcus gordonii, Capnocytophaga sputigena, Actinomyces naeslundii and Veillonella parvula. The pathogenic oral bacteria tested were Streptococcus mutans, Prevotella intermedia, Porphyromonas gingivalis, Fusobacterium nucleatum, Tannerella forsythia, Aggregatibacter actinomycetemcomitans and Streptococcus sobrinus.
as §2, §3, §4
This value was selected in order to exclude low-stimulating metabolites and avoid false positive results.

N[C@@H](CC(=O)O)C(=O)O [L-aspartic acid]
biofilm growth, OD at 630 nm (crystal violet) at 48 hrs divided by OD of control (control = 1) (Streptococcus mutans; 10 μmol/ml): 0.0000
biofilm growth, OD at 630 nm (crystal violet) at 48 hrs divided by OD of control (control = 1) (Streptococcus mutans; 20 μmol/ml): 0.1923
biofilm growth, OD at 630 nm (crystal violet) at 48 hrs divided by OD of control (control = 1) (Streptococcus mutans; 25 μmol/ml): 0.0000
biofilm growth, OD at 630 nm (crystal violet) at 48 hrs divided by OD of control (control = 1) (Streptococcus salivarius; 5 μmol/ml): 1.4152
biofilm growth, OD at 630 nm (crystal violet) at 48 hrs divided by OD of control (control = 1) (Streptococcus salivarius; 10 μmol/ml): 1.9207
biofilm growth, OD at 630 nm (crystal violet) at 48 hrs divided by OD of control (control = 1) (Streptococcus salivarius; 20 μmol/ml): 2.4799
biofilm growth, OD at 630 nm (crystal violet) at 48 hrs divided by OD of control (control = 1) (Streptococcus salivarius; 25 μmol/ml): 3.0682
biofilm growth, OD at 630 nm (crystal violet) at 48 hrs divided by OD of control (control = 1) (Streptococcus sanguinis [1]; 5 μmol/ml): 1.5035
biofilm growth, OD at 630 nm (crystal violet) at 48 hrs divided by OD of control (control = 1) (Streptococcus sanguinis [1]; 10 μmol/ml): 1.7477
biofilm growth, OD at 630 nm (crystal violet) at 48 hrs divided by OD of control (control = 1) (Streptococcus sanguinis [1]; 20 μmol/ml): 2.0414
biofilm growth, OD at 630 nm (crystal violet) at 48 hrs divided by OD of control (control = 1) (Streptococcus sanguinis [1]; 25 μmol/ml): 2.0560
biofilm growth, OD at 630 nm (crystal violet) at 48 hrs divided by OD of control (control = 1) (Tannerella forsythia; 5 μmol/ml): 1.0369
biofilm growth, OD at 630 nm (crystal violet) at 48 hrs divided by OD of control (control = 1) (Tannerella forsythia; 10 μmol/ml): 0.9131
biofilm growth, OD at 630 nm (crystal violet) at 48 hrs divided by OD of control (control = 1) (Tannerella forsythia; 20 μmol/ml): 1.0055
biofilm growth, OD at 630 nm (crystal violet) at 48 hrs divided by OD of control (control = 1) (Tannerella forsythia; 25 μmol/ml): 0.9659
biofilm growth, OD at 630 nm (crystal violet) at 48 hrs divided by OD of control (control = 1) (Veillonella parvula; 5 μmol/ml): 1.1641
biofilm growth, OD at 630 nm (crystal violet) at 48 hrs divided by OD of control (control = 1) (Veillonella parvula; 10 μmol/ml): 1.2799
biofilm growth, OD at 630 nm (crystal violet) at 48 hrs divided by OD of control (control = 1) (Veillonella parvula; 20 μmol/ml): 1.5344
biofilm growth, OD at 630 nm (crystal violet) at 48 hrs divided by OD of control (control = 1) (Veillonella parvula; 25 μmol/ml): 1.6960
prebiotic effect (biofilm growth) [2]: exhibited prebiotic effects
extent of growth, maximal OD630 over 48 hr divided by maximal OD of control (control = 1) ([3]; 5 μmol/ml): 0.7612
extent of growth, maximal OD630 over 48 hr divided by maximal OD of control (control = 1) ([3]; 10 μmol/ml): 0.7493
extent of growth, maximal OD630 over 48 hr divided by maximal OD of control (control = 1) ([3]; 20 μmol/ml): 0.6806
extent of growth, maximal OD630 over 48 hr divided by maximal OD of control (control = 1) ([3]; 25 μmol/ml): 0.6885
extent of growth, maximal OD630 over 48 hr divided by maximal OD of control (control = 1) (Streptococcus sobrinus; 5 μmol/ml): 0.9714
extent of growth, maximal OD630 over 48 hr divided by maximal OD of control (control = 1) (Streptococcus sobrinus; 10 μmol/ml): 0.9741
extent of growth, maximal OD630 over 48 hr divided by maximal OD of control (control = 1) (Streptococcus sobrinus; 20 μmol/ml): 0.9458
extent of growth, maximal OD630 over 48 hr divided by maximal OD of control (control = 1) (Streptococcus sobrinus; 25 μmol/ml): 0.9644
extent of growth, maximal OD630 over 48 hr divided by maximal OD of control (control = 1) (Capnocytophaga sputigena; 5 μmol/ml): 0.9521
extent of growth, maximal OD630 over 48 hr divided by maximal OD of control (control = 1) (Capnocytophaga sputigena; 10 μmol/ml): 0.9529
extent of growth, maximal OD630 over 48 hr divided by maximal OD of control (control = 1) (Capnocytophaga sputigena; 20 μmol/ml): 0.9776
extent of growth, maximal OD630 over 48 hr divided by maximal OD of control (control = 1) (Capnocytophaga sputigena; 25 μmol/ml): 0.9489
extent of growth, maximal OD630 over 48 hr divided by maximal OD of control (control = 1) (Streptococcus sanguinis [4]; 5 μmol/ml): 0.8662
extent of growth, maximal OD630 over 48 hr divided by maximal OD of control (control = 1) (Streptococcus sanguinis [4]; 10 μmol/ml): 0.8606
extent of growth, maximal OD630 over 48 hr divided by maximal OD of control (control = 1) (Streptococcus sanguinis [4]; 20 μmol/ml): 0.8622
extent of growth, maximal OD630 over 48 hr divided by maximal OD of control (control = 1) (Streptococcus sanguinis [4]; 25 μmol/ml): 0.8613
prebiotic effect (extent of growth) ([5]; 10 μmol/ml): exhibited prebiotic effects
prebiotic effect (extent of growth) ([5]; 20 μmol/ml): exhibited prebiotic effects

— patent US10945932B2, “Prebiotic oral care compositions containing carboxylic acids” (COLGATE-PALMOLIVE COMPANY, priority 2013, dated 2021)
